From patent US12453709B2, “Compositions and methods for treating autism” (priority 2013, dated 2025)

Assays:
Type in all cases: in vivo, human
[1] = system: male patients diagnosed with autism; experiment: Study HT 02-121: Clinical Global Impression (CGI) rating scales; details: for CGI-I Mean Change from Baseline / CGI-I Treatment effect versus placebo / CGI-I change from Baseline, median / CGI-S Mean Change from Baseline / CGI-S Treatment effect versus placebo / CGI-S change from Baseline, median: Week 4/LOCF
Method: (§1) This clinical study was a randomized double-blind, placebo-controlled two-cohort, 4-week dose-escalation study that incorporated two open-label treatment groups to assess the safety and efficacy of L1-79 100 mg and 200 mg TID in male patients between the ages of […] years of age diagnosed with autism. The first cohort of 20 patients was comprised of three groups of patients: The first group of five patients received open-label L1-79 100 mg TID and underwent PK and EKG assessments. The remaining two groups in this cohort consisted of 15 patients randomized on a 2:1 basis to receive L1-79 100 mg TID or placebo. The PK and safety data from the open-label L1-79 100 mg TID group was submitted to FDA for review and acceptance before the second cohort was enrolled. The second cohort was procedurally identical to the first. The second cohort of 20 patients was comprised of the same three groups of patients but a dose of 200 mg TID was used instead of 100 mg TID. The key inclusion criteria were as follows: (1) males between 13 and 21 years of age, (2) DSM-5 compliant diagnosis of autism spectrum disorder, confirmed by the Autistic Diagnosis Interview Review (ADIR), and by an ADOS-2 score consistent with a diagnosis of autism, (3) must have been stable on no more than one concomitant medication and no planned changes in psychosocial interventions during the study.
The primary efficacy endpoint was the determination of the clinical improvement by the investigator as documented by the Clinical Global Impression (CGI) rating scales. Additional efficacy endpoints included: (1) changes from baseline in the Socialization and Communication Domains of the Vineland Adaptive Behavior Scales, Second Edition (VABS II) parent/caregiver rating form, (2) changes from baseline in the ADOS-2 Total Score and subscores, (3) changes in the Social Responsiveness Scale, Second Edition (SRS-2) Total Score and subscales, (4) changes in the ABC-C domains, (5) changes in the Repetitive Behavior Scale-Revised (RBS-R) Total Score and subscales. Given the exploratory design of this study only descriptive statistics were planned. […]
Responder definitions for CGI-S were defined as improvement only (instead of improvement or no change) since, unlike the other measures which were performed weekly, the CGI-S requires the clinician to give an overall assessment of the patients' clinical symptom severity based on all of the outcome measures and their movement over the entirety of the study.

[2] = system: male patients diagnosed with autism; experiment: Study HT 02-121: ECGs and laboratory evaluations
Method: The first five patients in each cohort were assigned to receive active medication in an open-label fashion. The patients were treated identically to the randomized patients with the following exceptions: (1) blood samples were drawn at baseline and 1 hour after dosing, and at Week 1, 2, 3 and 4 treatment visits 1 hour after dosing to determine the PK of L1-79, (2) EKGs were assessed at baseline and within 3-days prior to the Week 1, 2, 3 and 4 treatment visits as well as the 1-week and 4-week post-dosing follow-up visits, (3) vital signs, physical exams, and ASD assessments were performed at 1-week postdosing visit, (4) blood and urine samples were drawn at baseline and at Week 1, 2, 3 and 4 treatment visits 1 hour after dosing as well as the 1-week and 4-week post-dosing follow-up visits for safety analyses.
Safety was the primary endpoint of the study. The following safety endpoints were assessed: ECGs, physical exams, laboratory evaluations (hematology, chemistry and urinalysis), vital signs, including orthostatic blood pressure, adverse events (AEs) and concomitant medications.
Of note was the observation that half (50%) of the patients on L1-79 developed crystalluria compared to 30% of placebo treated patients. Of those that developed crystalluria during the study, approximately half (50%) had concentrated urine (specific gravity>1.025). […]

[3] = system: male patients diagnosed with autism; experiment: Study HT 02-121: Aberrant Behavior Checklist-Community (ABC-C); details: for ABC-C Hyperactivity and Noncompliance Mean Change from Baseline / ABC-C Hyperactivity and Noncompliance Treatment effect versus placebo / ABC-C Hyperactivity and Noncompliance change, median / ABC-C Inappropriate Speech Mean Change from Baseline / ABC-C Inappropriate Speech Treatment effect versus placebo / ABC-C Inappropriate Speech change, median / ABC-C Irritability and Agitation Mean Change from Baseline / ABC-C Irritability and Agitation Treatment effect versus placebo / ABC-C Irritability and Agitation change, median / ABC-C Lethargy and Social Withdrawal Mean Change from Baseline / ABC-C Lethargy and Social Withdrawal Treatment effect versus placebo / ABC-C Lethargy and Social Withdrawal change, median / ABC-C Stereotypic Behavior Mean Change from Baseline / ABC-C Stereotypic Behavior Treatment effect versus placebo / ABC-C Stereotypic Behavior change, median: Week 4/LOCF
Method: as §1
The primary efficacy endpoint was the determination of the clinical improvement by the investigator as documented by the Clinical Global Impression (CGI) rating scales. Additional efficacy endpoints included: (1) changes from baseline in the Socialization and Communication Domains of the Vineland Adaptive Behavior Scales, Second Edition (VABS II) parent/caregiver rating form, (2) changes from baseline in the ADOS-2 Total Score and subscores, (3) changes in the Social Responsiveness Scale, Second Edition (SRS-2) Total Score and subscales, (4) changes in the ABC-C domains, (5) changes in the Repetitive Behavior Scale-Revised (RBS-R) Total Score and subscales. Given the exploratory design of this study only descriptive statistics were planned.
In the preliminary study, all forms were completed at the study site in the presence of the investigator. In Cohort 1 of the present study, the VABS-II, SRS-2, ABC-C and RBS-R were filled out at home by the patient/patient's families prior to treatment visits and returned at treatment visits in order to expedite the execution of the study. […]

Compound: CC(N)(Cc1ccc(O)cc1)C(=O)O (racemic) [L1-79, α-methyl-DL-tyrosine]
- responder analysis for CGI-S ([1]; 100 mg and 200 mg groups vs placebo, Week 4): clear dose response trend of improvement
- mean improvement on overall CGI-S versus placebo and 100 mg groups ([1]; 200 mg group, Week 4 or LOCF): 0.5 point
- CGI-I Mean Change from Baseline ([1]; DB 100 mg TID): −0.6
- CGI-I Treatment effect versus placebo ([1]; DB 100 mg TID): −0.4
- CGI-I change from Baseline, median ([1]; DB 100 mg TID): −1, −1, 0
- CGI-S Mean Change from Baseline ([1]; DB 100 mg TID): −0.3
- CGI-S Treatment effect versus placebo ([1]; DB 100 mg TID): −0.0
- CGI-S change from Baseline, median ([1]; DB 100 mg TID): −1, −0, 0
- CGI-I Mean Change from Baseline ([1]; DB 200 mg TID): −0.5
- CGI-I Treatment effect versus placebo ([1]; DB 200 mg TID): −0.3
- CGI-I change from Baseline, median ([1]; DB 200 mg TID): −1, 0, 0
- CGI-S Mean Change from Baseline ([1]; DB 200 mg TID): −0.8
- CGI-S Treatment effect versus placebo ([1]; DB 200 mg TID): −0.5
- CGI-S change from Baseline, median ([1]; DB 200 mg TID): −2, −1, 0
- change in the CGI-S compared to baseline ([1]; less than one month of treatment, blinded assessment): nearly one-point change
- changes from baseline EKGs ([2]; any of the patients): No clinically significant changes
- patients who developed crystalluria ([2]; patients on L1-79, placebo 30%): 50%
- ABC-C Lethargy and Social Withdrawal / Inappropriate Speech: responder analyses vs placebo ([3]; 200 mg group): greater tendency for patients to respond with improvement or no worsening
- ABC-C Hyperactivity and Noncompliance Mean Change from Baseline ([3]; DB 100 mg TID): 0.4
- ABC-C Hyperactivity and Noncompliance Treatment effect versus placebo ([3]; DB 100 mg TID): 4.9
- ABC-C Hyperactivity and Noncompliance change, median ([3]; DB 100 mg TID): 0, 0, 3
- ABC-C Inappropriate Speech Mean Change from Baseline ([3]; DB 100 mg TID): 0.0
- ABC-C Inappropriate Speech Treatment effect versus placebo ([3]; DB 100 mg TID): 1.6
- ABC-C Inappropriate Speech change, median ([3]; DB 100 mg TID): −2, 0, 1
- ABC-C Irritability and Agitation Mean Change from Baseline ([3]; DB 100 mg TID): −0.9
- ABC-C Irritability and Agitation Treatment effect versus placebo ([3]; DB 100 mg TID): 2.5
- ABC-C Irritability and Agitation change, median ([3]; DB 100 mg TID): −2, −1, 0
- ABC-C Lethargy and Social Withdrawal Mean Change from Baseline ([3]; DB 100 mg TID): −1.6
- ABC-C Lethargy and Social Withdrawal Treatment effect versus placebo ([3]; DB 100 mg TID): 3.9
- ABC-C Lethargy and Social Withdrawal change, median ([3]; DB 100 mg TID): −2, −1, 1
- ABC-C Stereotypic Behavior Mean Change from Baseline ([3]; DB 100 mg TID): 1.9
- ABC-C Stereotypic Behavior Treatment effect versus placebo ([3]; DB 100 mg TID): 2.5
- ABC-C Stereotypic Behavior change, median ([3]; DB 100 mg TID): 0, 0, 4
- ABC-C Hyperactivity and Noncompliance Mean Change from Baseline ([3]; DB 200 mg TID): −4.0
- ABC-C Hyperactivity and Noncompliance Treatment effect versus placebo ([3]; DB 200 mg TID): 0.5
- ABC-C Hyperactivity and Noncompliance change, median ([3]; DB 200 mg TID): −7, −1, 0
- ABC-C Inappropriate Speech Mean Change from Baseline ([3]; DB 200 mg TID): −2.0
- ABC-C Inappropriate Speech Treatment effect versus placebo ([3]; DB 200 mg TID): −0.4
- ABC-C Inappropriate Speech change, median ([3]; DB 200 mg TID): −4, −1, 0
- ABC-C Irritability and Agitation Mean Change from Baseline ([3]; DB 200 mg TID): −2.2
- ABC-C Irritability and Agitation Treatment effect versus placebo ([3]; DB 200 mg TID): 1.2
- ABC-C Irritability and Agitation change, median ([3]; DB 200 mg TID): −7, −2, 0
- ABC-C Lethargy and Social Withdrawal Mean Change from Baseline ([3]; DB 200 mg TID): −4.5
- ABC-C Lethargy and Social Withdrawal Treatment effect versus placebo ([3]; DB 200 mg TID): 1.0
- ABC-C Lethargy and Social Withdrawal change, median ([3]; DB 200 mg TID): −9, −2, 0
- ABC-C Stereotypic Behavior Mean Change from Baseline ([3]; DB 200 mg TID): −1.7
- ABC-C Stereotypic Behavior Treatment effect versus placebo ([3]; DB 200 mg TID): −1.1
- ABC-C Stereotypic Behavior change, median ([3]; DB 200 mg TID): −3, −1, 0
- patients with stability or improvement of ABC-C social and speech domains ([3]; L1-79 200 mg): 90 to 100%
